Laboratory results taken from PubChem BioAssay AID1996.
In brackets after ≈: the same amount, converted by molar mass.

settings: buffer; pH 7.4; 200.0 µM

Compound | solubility kinetic
Cc1nc(Cl)sc1C(=O)Nc1ccc(C(F)(F)F)cc1 | 6.6 µg/mL (≈ 20.6 µM)
c1ccc(CC2CCCCN2)cc1 (configuration not stated) | 7.7 µg/mL (≈ 43.9 µM)
Cc1ccc(NS(=O)(=O)c2csc(C(N)=O)c2)cc1C | 18.9 µg/mL (≈ 60.9 µM)
Cc1c(C(=O)Nc2cccc(S(=O)(=O)N3CCOCC3)c2)oc2ccc(Br)cc12 | 4.5 µg/mL (≈ 9.39 µM)
Cc1ccc(-c2nc3ncccc3o2)cc1NC(=O)C(C)C | 25.3 µg/mL (≈ 85.7 µM)
CCOc1ccc(NC(=O)CN(C)C(=O)c2ccc(C)o2)cc1OCC | 52.5 µg/mL (≈ 146 µM)
O=C(Nc1ccc(OC(F)(F)F)cc1)c1cnccn1 | 11.3 µg/mL (≈ 39.9 µM)
COc1ccc(CC(=O)Nc2ccc3c(c2)C(=O)N(CCC(=O)O)C3=O)cc1 | 53.2 µg/mL (≈ 139 µM)
Nc1nc(NCCO)nc(NC2CCCCC2)c1[N+](=O)[O-] | 39.1 µg/mL (≈ 132 µM)
O=S(=O)(Nc1ccon1)c1cc(Cl)ccc1Cl | 43.3 µg/mL (≈ 148 µM)
COc1nc(-c2cccc([N+](=O)[O-])c2)nc2ccccc12 | < 0.2 µg/mL
COc1ccc(C(=O)c2c[nH]c(C(=O)N=CN(C)C)c2)cc1 | 42 µg/mL (≈ 140 µM)
Cn1c(C2=C(O)CN(Cc3ccccc3)C2=N)[n+](C)c2ccccc21.[Cl-] | 48.2 µg/mL
O=C1CSC(c2ccncc2)N1Cc1ccc(F)cc1 (configuration not stated) | > 43.3 µg/mL
COCCNc1nc2c(c(=O)n(Cc3ccccc3F)c(=O)n2C)n1C | 8.5 µg/mL (≈ 23.5 µM)
O=C(COC(=O)C1CC1)Nc1ccc2[nH]c(=O)[nH]c2c1 | > 41.3 µg/mL
O=C(Nc1ncccc1Cl)c1cc2ccccc2o1 | 11.4 µg/mL (≈ 41.8 µM)
Cc1ncoc1C(=O)Nc1ncc([N+](=O)[O-])s1 | > 38.1 µg/mL
Cc1cn(S(=O)(=O)c2ccc(Cl)cc2)c(C)n1 | 8.6 µg/mL (≈ 31.8 µM)
COc1ccc(OCCNS(=O)(=O)c2cccc([N+](=O)[O-])c2)cc1 | 16.4 µg/mL (≈ 46.5 µM)
O=C(NCCNC1CCCCC1)c1ccco1 | 26.2 µg/mL (≈ 111 µM)
O=C(Nc1ccc2c(c1)OCO2)c1noc2c1CCCC2 | 4.1 µg/mL (≈ 14.3 µM)
CC1CN(c2ccc([N+](=O)[O-])c(N3CCCCC3)c2)CCN1 (configuration not stated) | 42.4 µg/mL (≈ 139 µM)
CC(C)(C)c1ccc(C(=O)NCC(=O)N2CCNC(=O)C2)cc1 | > 47.6 µg/mL

Compound | solubility kinetic
CC(=O)c1ccc(OCC(=O)NC(=O)NC2CCCCC2)cc1 | 9.3 µg/mL (≈ 29.2 µM)
CCc1ccc(CN(C)C(=O)c2ccc3c(c2)OCCO3)cc1 | > 46.7 µg/mL
Cc1ccc(S(=O)(=O)NCCC(=O)Oc2ccc3ccc(=O)oc3c2)cc1 | 25.5 µg/mL (≈ 65.8 µM)
Cc1nc(-c2ccccc2OC(F)(F)F)[nH]c(=O)c1Cl | 43.2 µg/mL (≈ 142 µM)
COc1ccc(C(=O)NCc2ccccc2C)cc1S(=O)(=O)NC1CCCC1 | 33.6 µg/mL (≈ 83.5 µM)
CC1CCCC(N2CCN(C(=O)c3ccccc3F)CC2)C1 (configuration not stated) | > 45.7 µg/mL
COc1ccc(CC(=O)OC(C)C(=O)Nc2c(C)n(C)n(-c3ccccc3)c2=O)cc1OC (configuration not stated) | > 68 µg/mL
CN(Cc1ccccc1)C(=O)CN(C)S(=O)(=O)c1ccc(F)cc1 | > 52.6 µg/mL
Cc1ccc(NC(=O)c2ccco2)c(NC(=O)c2ccccc2)c1 | 4.1 µg/mL (≈ 12.8 µM)
O=C(COc1ccc(Cl)cc1)NCCN1CCCCC1 | > 44.5 µg/mL
O=C(Nc1ccc(N2CCN(C(=O)c3cccs3)CC2)cc1)c1ccco1 | 1.6 µg/mL (≈ 4.19 µM)
O=C(Nc1ccc(Oc2cccc(C(F)(F)F)c2)nc1)c1cccs1 | < 0.4 µg/mL
CCOc1ccc(N2C(=O)CC(C(C)c3ccccc3)C2=O)cc1 (configuration not stated) | 5.7 µg/mL (≈ 17.6 µM)
CC1(C)Cc2nc(Cl)c(C(N)=O)cc2CO1 | > 36.1 µg/mL
O=C(COC(=O)c1ccc(Br)o1)NCC1CCCCC1 | > 51.6 µg/mL
O=C(Cc1cccs1)NCc1cccc(Cl)c1 | > 39.9 µg/mL
Cc1ccc(C2(O)CN3CCC2CC3)cc1.Cl (configuration not stated) | > 38.1 µg/mL
CCc1ccccc1NS(=O)(=O)Cc1ccccc1 | 40.2 µg/mL (≈ 146 µM)
CC1CCCCN1C(=O)CNCC1CCCO1.O=C(O)C(=O)O (configuration not stated) | > 49.6 µg/mL
COc1ccc(C(=O)NC(=S)N(C)C2CCCCC2)cc1 | 5.5 µg/mL (≈ 17.9 µM)
CCOc1ccccc1Oc1nc(-c2ccccc2O)nc2ccccc12 | 0.6 µg/mL (≈ 1.67 µM)
CCN(CC)S(=O)(=O)c1ccc(C(=O)O)cc1 | 30.4 µg/mL (≈ 118 µM)
CN(CC(=O)Nc1ccc(F)c(F)c1F)C(=O)C1CCCCC1 | > 49.3 µg/mL
